Data from patent US20080268123A1, “Onion Flavoured Compounds and Use” (GIVAUDAN SA, priority 2005, published 2008).
Entries after “also recorded” stand apart in the source; their conditions may differ.

Experiments:
[1] = Sensory effects of compounds of formula I in water (triangle test, trained panel); details: additive 5 mmol/L
Protocol: (§1) Unless otherwise indicated, all sensory tests are triangle tests and are performed according to the guidelines in “Amtliche Sammlung von Untersuchungsverfahren nach § 35 LMBG (Lebensmittel-und Bedarfsgegenständegesetz)”; L 00.90 7 , Untersuchung von Lebensmitteln , Sensorische Prüfverfahren, Dreiecksprüfung (Übernahme der gleichnahmigen Deutschen Norm DIN ISO 4120, Ausgabe Januar 1995), as follows:
(§2) The sensory panel is trained to evaluate the taste of aqueous solutions (4 ml each) of the following standard taste compounds by using a triangle test as described in the literature (Wieser and Belitz, Z. Lebensm. Unters. Forsch., 1975, 159, 65-72): sucrose (40 mmol/L) for sweet taste; citric acid (5 mmol/L) for sour taste; NaCl (12 mmol/L) for salty taste; caffeine (2 mmol/L) for bitter taste; and monosodium glutamate (MSG; 6 mmol/L) for umami taste. For kokumi taste, a solution of glutathione (10 mmol/L) in diluted chicken broth concentrate (Gourmet Bouillon Huhn, Maggi, Singen, Germany; 3 g/100 g bottled water (Evian®)) is prepared and compared to the taste of chicken broth with no glutathione added. All sensory analyses are performed in a sensory panel room at 22-25° C. over three different sessions by a trained panel of 8 to 10 individuals.
(§3) For recording the taste profiles, samples are prepared as indicated in the examples below. Taste profiles of samples are determined in a triangle test in three different sessions. Panellists refrain from eating or drinking for at least 1 hour prior to the session. At the start of the session and before each trial, the subject rinsed with water and expectorated. The participants receive a set of two blanks and one taste sample. Liquid samples are swirled around in the mouth briefly and expectorated. Solid samples are chewed for 20 seconds and then expectorated. […] Each sample with additive is compared to two reference samples without additives.

[2] = Sensory effects of compounds of formula I in chicken broth (triangle test, trained panel); details: for kokumi intensity (0-5): broth without additives = 2
Protocol: as §1, §2, §3
Sensory tests (triangle test) are performed at least three times for each compound using sensory panels of different individuals to confirm results.
Chicken Broth is prepared by dilution of 3 g chicken broth concentrate (Gourmet Bouillon Huhn; Maggi, Singen, Germany) with 100 ml water (Evian). Additives are added as specified in table below.
The pH-value of all samples is adjusted to 6.5 using formic acid (0.1 mol/L) or sodium hydroxide (0.1 mol/L).
Flavour intensity (onion or kokumi) is rated from 0-5 according to a scale from 0 to 5 (with 5 most intensive). GSH (5 mmol/L) is determined to have an kokumi intensity of 3 in all tests.
The additive is added to a consumable and the sample is homogenised. The samples are presented to the sensory panel directly after homogenisation.
For each sample, flavour intensity is rated and panelists are asked to describe sensory characteristics.

[3] = Onion flavour compounds in tomato soup (sensory panel)
Protocol: as §1, §3
Cys-O—C2H5 and γ-Glu-Cys-O—C2H5 are added to tomato soup (Unox, Unilever Bestfoods, Germany, pH 4,5), in the concentrations indicated below.

[4] = Onion flavour compounds in mushroom cream soup (sensory panel); details: mushroom cream soup pH 6.0, additive 1 mmol/L
Protocol: as §1, §3
Cys-O—C2H5and γ-Glu-Cys-O—C2H5are added to mushroom cream soup (Unox, Unilever Bestfoods, Germany), pH 6.0 in a concentration of 1 mmol/L samples are evaluated directly after homogenisation.

[5] = Onion flavour compounds in barbecue sauce (sensory panel); details: barbecue sauce pH 3.3, additive 5 mmol/L
Protocol: as §1, §3
Onion flavour compounds as indicated in the table below are added to barbecue sauce (Kraft Foods, Germany), pH 3.3.

[6] = chicken broth pH 6.5, additive 5 mmol/L
[7] = chicken broth pH 6.5, additive 5 mmol/L, scale 0 to 5 (5 most intensive)
[8] = chicken broth pH 6.5, additive 5 mmol/L, scale 0 to 5
[9] = chicken broth pH 6.5, additive 30 mmol/L (positive control)
[10] = chicken broth pH 6.5, additive 10 mmol/L (positive control)
[11] = tomato soup pH 4,5, additive 1 mmol/L
[12] = tomato soup pH 4,5, additive 5 mmol/L

Compound	Onion flavour intensity [1]	Sensory description [1]	Sensory descriptors [2, 6]	onion flavour intensity (0-5) [2, 7]	kokumi intensity (0-5) [2, 8]	other results
N[C@@H](CCC(=O)N[C@@H](CS)C(=O)O)C(=O)O [γ-Glu-Cys-OH, reference compound]	0	tasteless	increased kokumi taste	0	4	
COC(=O)[C@@H](N)CO [Ser-O—CH3]	0	slightly sweet				
CCOC(=O)[C@@H](N)CO [Ser-O—C2H5]	0	slightly sweet				
COC(=O)[C@@H](N)CS [Cys-O—CH3]	2.5	onion flavour	onion flavour	2	2	
N[C@@H](CS)C(=O)O [Cys-OH, reference compound]	0	sweet	increased sweetness	0	2	
[Cl-].[Na+] [NaCl, reference compound]						Sensory descriptors [2, 9]: increased salt taste; onion flavour intensity (0-5) [2, 9]: 0; kokumi intensity (0-5) [2, 9]: 2
N[C@@H](CCC(=O)O)C(=O)[O-].[Na+] [MSG, mono sodium glutamate, reference compound]						Sensory descriptors [2, 10]: increased umami taste; onion flavour intensity (0-5) [2, 10]: 0; kokumi intensity (0-5) [2, 10]: 2
CCOC(=O)[C@@H](N)CS [Cys-O—C2H5]	3.5	onion flavour	onion flavour	3	2	Test results (sensory description versus reference) [3, 11]: onion like and slightly meaty flavour; also recorded: Preferred, onion like flavour, slightly meaty; Test results (sensory description versus reference) [3, 12]: onion like and slightly meaty flavour; Test results (sensory description versus reference) [4]: Preferred, onion like flavour; panelists indicating an onion like flavour [4]: 7 out of 8; Test results (sensory description versus reference) [5]: Preferred, onion like flavour, meaty
CSCC[C@H](N)C(=O)O [Met-OH]	0	sweet				
CCOC(=O)[C@@H](N)CCSC [Met-O—C2H5]	1.5	slight onion flavour	slight onion flavour	1.5	2	
N[C@@H](CCC(=O)N[C@@H](CS)C(=O)NCC(=O)O)C(=O)O [GSH, reduced form, glutathione, reference compound]			increased kokumi taste	0	3	
COC(=O)[C@@H](N)CCSC [Met-O—CH3]	1	slight onion flavour	slight onion flavour	0.5	2	
CCOC(=O)CNC(=O)[C@H](CS)NC(=O)CC[C@H](N)C(=O)O [γ-Glu-Cys-Gly-O—C2H5]	0	intensely bitter				
CCOC(=O)[C@H](CS)NC(=O)CC[C@H](N)C(=O)O [γ-Glu-Cys-O—C2H5]	4.5	onion flavour	strong onion flavour, increased	4	3.5	Test results (sensory description versus reference) [3, 11]: more roasty; also recorded: Preferred, onion like flavour, meaty, roasty, slightly; Test results (sensory description versus reference) [3, 12]: Preferred, strong onion like flavour, meaty, roasty, more; Panel description in text (difference, preference, kokumi taste) ([3]; tomato soup pH 4,5, samples with 1 mmol/L and 5 mmol/L taken together): kokumi taste; Test results (sensory description versus reference) [4]: the observed effect is higher; also recorded: Preferred, strong onion like flavour, meaty,; Test results (sensory description versus reference) [5]: more roasty; also recorded: kokumi taste; also recorded: Preferred, strong onion like flavour, meaty,
γ-Glu-Cys(S—C2H5)-Gly-O—C2H5	0	intensely bitter				
